Measured values taken from patent US20240166652A1, “MODULATORS OF THE INTEGRATED STRESS PATHWAY” (Calico Life Sciences LLC, priority 2017, published 2024).

What follows are molecules tested on ATF4 luciferase reporter in HEK293T cells (assay: ATF4-Luc assay (ATF4 luciferase reporter, tunicamycin-treated HEK293T cells)). Settings: HEK293T cells carrying the ATF4 luciferase reporter, 1 μg/mL tunicamycin, 7 hours.
Type: cell-based, human
O=C(COc1ccc(Cl)cc1)NC12CCC(NC(=O)COc3ccc(F)cc3)(CC1)[C@@H](O)C2 [Compound 708, 2-(4-chlorophenoxy)-N-{(3S)-4-[2-(4-fluorophenoxy)acetamido]-3-hydroxybicyclo[2.2.2]octan-1-yl}acetamide] was tested, and the EC50 was < 10 nM. With O=C(COc1ccc(F)c(F)c1)NC12CCC(NC(=O)COc3ccc(F)c(F)c3)(CC1)[C@@H](O)C2 [Compound 683, N,N′-[(2S)-2-hydroxybicyclo[2.2.2]octane-1,4-diyl]bis[2-(3,4-difluorophenoxy)acetamide]] the EC50 was < 10 nM.

Same assay, conditions: Homo sapiens, HEK-293T; HEK293T cells carrying the ATF4 luciferase reporter, 1 μg/mL tunicamycin, 7 hours
With O=C(COc1ccc(F)cc1)NC12CC(NC(=O)COc3ccc(Cl)c(Cl)c3)(C1)C2 [Compound 532, 2-(3,4-dichlorophenoxy)-N-{3-[2-(4-fluorophenoxy)acetamido]bicyclo[1.1.1]pentan-1-yl}acetamide] the EC50 was < 10 nM. With O=C(COc1ccc(Cl)c(F)c1)NC12CC(NC(=O)COc3ccc(C(F)(F)F)nn3)(C1)C2 [Compound 256, 2-(4-chloro-3-fluorophenoxy)-N-[3-(2-{[6-(trifluoromethyl)pyridazin-3-yl]oxy}acetamido)bicyclo[1.1.1]pentan-1-yl]acetamide] the EC50 was 50 to 250 nM. In the case of O=C(COc1ccc(Cl)c(F)c1)NC12CCC(NC(=O)COc3cnn(CC(F)(F)F)c(=O)c3)(CC1)C(=O)C2 [Compound 317, 2-(4-chloro-3-fluorophenoxy)-N-[3-oxo-4-(2-{[6-oxo-1-(2,2,2-trifluoroethyl)-1,6-dihydropyridazin-4-yl]oxy}acetamido)bicyclo[2.2.2]octan-1-yl]acetamide], the EC50 is reported as > 2000 nM. For Cc1cc(OCC(=O)NC23CCC(NC(=O)COc4ccc(Cl)c(F)c4)(CC2)C[C@@H]3O)cc(C)n1 [Compound 395, 2-(4-chloro-3-fluorophenoxy)-N-[(3S)-4-{2-[(2,6-dimethylpyridin-4-yl)oxy]acetamido}-3-hydroxybicyclo[2.2.2]octan-1-yl]acetamide], the EC50 was 500 to 2000 nM. In the case of COCC1CC2(NC(=O)COc3ccc(Cl)c(F)c3)CCC1(NC(=O)COc1ccc(Cl)c(F)c1)CC2 (centres unmarked) [Compound 716, N,N′-[2-(methoxymethyl)bicyclo[2.2.2]octane-1,4-diyl]bis[2-(4-chloro-3-fluorophenoxy)acetamide]], the EC50 is reported as 10 to 50 nM. Work on O=C(COc1ccc(Cl)c(F)c1)NC12CCC(=O)C(NC(=O)COc3ccc(Cl)c(F)c3)(CC1)C2 (centres unmarked) [Compound 671, N,N′-(2-oxobicyclo[3.2.1]octane-1,5-diyl)bis[2-(4-chloro-3-fluorophenoxy)acetamide]] yielded an EC50 of 500 to 2000 nM. CC(=O)c1ccc(OCC(=O)NC23CCC(NC(=O)COc4ccc(Cl)c(F)c4)(CC2)[C@@H](O)C3)cc1 [Compound 524, 2-(4-acetylphenoxy)-N-{(3S)-4-[2-(4-chloro-3-fluorophenoxy)acetamido]-3-hydroxybicyclo[2.2.2]octan-1-yl}acetamide] showed an EC50 of 10 to 50 nM. O=C(COc1ccc(Cl)c(F)c1)NC12CCC(O)C(NC(=O)COc3ccc(Cl)c(F)c3)(CC1)C2 (centres unmarked) [Compound 670, N,N′-(2-hydroxybicyclo[3.2.1]octane-1,5-diyl)bis[2-(4-chloro-3-fluorophenoxy)acetamide]] gave an EC50 of 500 to 2000 nM. Molecule O=C(COc1cncc(C(F)(F)F)c1)NC12CCC(NC(=O)COc3ccc(Cl)c(F)c3)(C1)C2 [Compound 355, 2-(4-chloro-3-fluorophenoxy)-N-[4-(2-{[5-(trifluoromethyl)pyridin-3-yl]oxy}acetamido)bicyclo[2.1.1]hexan-1-yl]acetamide] has an EC50 of 50 to 250 nM. With O=C(COc1ccc(Cl)c(F)c1)NC12CC(NC(=O)COc3cc(F)c(F)c(F)c3)(C1)C2 [Compound 416, 2-(4-chloro-3-fluorophenoxy)-N-{3-[2-(3,4,5-trifluorophenoxy)acetamido]bicyclo[1.1.1]pentan-1-yl}acetamide] the EC50 was < 10 nM. O=C(COc1ccc(F)c(F)c1)NC12CCC(NC(=O)COc3ccc(C(F)(F)F)nc3)(CC1)C(O)C2 (centres unmarked) [Compound 359, 2-(3,4-difluorophenoxy)-N-[3-hydroxy-4-(2-{[6-(trifluoromethyl)pyridin-3-yl]oxy}acetamido)bicyclo[2.2.2]octan-1-yl]acetamide] showed an EC50 of 10 to 50 nM. With O=C(COc1ccc(OC(F)(F)F)cc1)NC12CCC(NC(=O)COc3ccc(F)c(F)c3)(CC1)[C@@H](O)C2 [Compound 784, 2-(3,4-difluorophenoxy)-N-[(2S)-2-hydroxy-4-{2-[4-(trifluoromethoxy)phenoxy]acetamido}bicyclo[2.2.2]octan-1-yl]acetamide] the EC50 was < 10 nM. Work on CN(C)C1CC2(NC(=O)COc3ccc(Cl)c(F)c3)CCC1(NC(=O)COc1ccc(Cl)c(F)c1)CC2 (centres unmarked) [Compound 300, N,N′-[2-(dimethylamino)bicyclo[2.2.2]octane-1,4-diyl]bis[2-(4-chloro-3-fluorophenoxy)acetamide]] yielded an EC50 of 10 to 50 nM. For Cc1cc(OCC(=O)NC23CCC(NC(=O)COc4ccc(Cl)c(F)c4)(CC2)[C@@H](O)C3)ccc1F [Compound 814, 2-(4-chloro-3-fluorophenoxy)-N-{(2S)-4-[2-(4-fluoro-3-methylphenoxy)acetamido]-2-hydroxybicyclo[2.2.2]octan-1-yl}acetamide], the EC50 was < 10 nM. In the case of O=C(COc1ccc(F)c(F)c1)NC12CCC(NC(=O)COc3ccc(Cl)c(Cl)c3)(CC1)C(=O)N2 [Compound 680, 2-(3,4-dichlorophenoxy)-N-{1-[2-(3,4-difluorophenoxy)acetamido]-3-oxo-2-azabicyclo[2.2.2]octan-4-yl}acetamide], the EC50 is reported as < 10 nM. For COc1ccc(CNC23CCC(NC(=O)COc4ccc(Cl)c(F)c4)(CC2)C(O)C3)cc1 (centres unmarked) [Compound 314, 2-(4-chloro-3-fluorophenoxy)-N-(2-hydroxy-4-{[(4-methoxyphenyl)methyl]amino}bicyclo[2.2.2]octan-1-yl)acetamide], the EC50 was > 2000 nM. Work on Cc1cccc(CCOCC(=O)NC23CC(NC(=O)COc4ccc(Cl)c(Cl)c4)(C2)C3)c1 [Compound 152, 2-(3,4-dichlorophenoxy)-N-(3-{2-[2-(3-methylphenyl)ethoxy]-acetamido}bicyclo[1.1.1]pentan-1-yl)acetamide] yielded an EC50 of 50 to 250 nM. Work on COc1ccc(OCC(=O)NC23CC(NC(=O)COc4ccc(Cl)c(F)c4)(C2)C3)cn1 [Compound 241, 2-(4-chloro-3-fluorophenoxy)-N-(3-{2-[(6-methoxypyridin-3-yl)oxy]acetamido}bicyclo[1.1.1]pentan-1-yl)acetamide] yielded an EC50 of 10 to 50 nM. In the case of O=C(COc1ccc(F)c(C(F)(F)F)c1)NC12CCC(NC(=O)COc3ccc(F)c(C(F)(F)F)c3)(CC1)[C@@H](O)C2 [Compound 823, N,N′-[(2S)-2-hydroxybicyclo[2.2.2]octane-1,4-diyl]bis{2-[4-fluoro-3-(trifluoromethyl)phenoxy]acetamide}], the EC50 is reported as < 10 nM. O=C(COc1ccc(Cl)c(F)c1)NC12CC(NS(=O)(=O)CCOc3ccccc3)(C1)C2 [Compound 488, 2-(4-chloro-3-fluorophenoxy)-N-{3-[(2-phenoxyethanesulfonyl)amino]bicyclo[1.1.1]pentan-1-yl}acetamide] was tested, and the EC50 was > 2000 nM. With O=C(COc1ccc(Cl)c(F)c1)NC12CC(NC(=O)COc3cnc(F)c(Cl)c3)(C1)C2 [Compound 240, 2-(4-chloro-3-fluorophenoxy)-N-(3-{2-[(5-chloro-6-fluoropyridin-3-yl)oxy]acetamido}bicyclo[1.1.1]pentan-1-yl)acetamide] the EC50 was < 10 nM.
